We go through one compound from patent US20050222271A1, “Novel amorphous form of memantine hydrochloride” (priority 2004, published 2005).

The data set in a line: Solubility (complete dissolution) of memantine hydrochloride in solvents. The format is physicochemical. How it is done:
In particular, memantine hydrochloride is soluble in water, allowing the complete dissolution of memantine hydrochloride at room temperature at a concentration of 50 mg per milliliter (ml). The use of a relatively concentrated solution, e.g. about 50 mg per ml is therefore preferred.
In a first step of the distillation process, memantine hydrochloride is preferably dissolved in an […] solvent; more preferably dissolved in a straight or branched chain C1-C4 alcohol solvent, and most preferably dissolved in methanol or ethanol to form a solution. Memantine hydrochloride is soluble in methanol or ethanol, allowing the complete dissolution of memantine hydrochloride at ambient temperature.
In particular, memantine hydrochloride is soluble in methanol, allowing the complete dissolution of memantine hydrochloride in methanol at ambient temperature with a concentration of 30 mg per milliliter (ml). The use of a relatively concentrated solution, e.g. about 30 mg per ml is therefore preferred for methanol.
In particular, memantine hydrochloride is soluble in ethanol, allowing the complete dissolution of memantine hydrochloride in ethanol at ambient temperature with a concentration of 20 mg per ml. The use of a relatively concentrated solution, e.g. about 20 mg per ml is therefore preferred for ethanol.

For the compound `CC12CC3CC(C)(C1)CC(N)(C3)C2.Cl` [memantine hydrochloride, 1-amino-3,5-dimethyltricyclo[3,3,1,1^3,7]decane hydrochloride], where the note is “ethanol, ambient temperature”, the “solubility in ethanol (complete dissolution with a concentration of)” value is given as no less than 20 mg per ml. In addition, the “solubility in methanol (complete dissolution with a concentration of)” value (methanol, ambient temperature) is on record as ≥ 30 mg per milliliter (ml). Moreover, the “solubility in water (complete dissolution at a concentration of)” value (water, room temperature) was ≥ 50 mg per milliliter (ml).
